Holding throughout (assay type): cell-based, human
Assay [1] relates to WM793 (BRAF V600E melanoma). The experiment in a line: 3H-thymidine cell proliferation assay, WM793. As to conditions: BRAF mutant melanoma (WM793), 250 nM siRNA. The protocol:
(§1) The MMP-1 siRNA (5′-gagcaagatgtggacttag-3′) and scrambled siRNA (5′-gattcaggtgtagaacgag-3′) sequences were designed using Dharmacon siDESIGN Center. Transfection of the siRNAs was performed using 2 μL of DharmaFECT 1 transfection reagent (Dharmacon) and 100 nM of MMP-1 siRNA and scrambled siRNA for the WM852 cell line and 250 nM for the WM793 cell line. Cells were collected and pelleted 24 hours after transfection for RNA extraction using the RNeasy Mini Kit ([…]), cDNA production by using SUPERSCRIPT First-Strand Synthesis System for RT-PCR according to manufacturer's instructions (Invitrogen), and semi-quantitative duplex PCR to confirm MMP-1 knockdown.
(§2) WM852 and WM793 cell lines were seeded at 15,000 cells per well into a 96-well tissue culture plate (Becton Dickinson) 24 hours after siRNA transfection. Twenty-two hours later, 10 μL of 0.1 μCi/μL ^3H-thymidine (Perkin Elmer) was added to each well. After 4 hours, the cells were washed with PBS and 50 μL of trypsin was added into each well for 10 minutes. The trypsinized cells were harvested to a filtermat using the Perkin Elmer FilterMate cell harvester (Perkin Elmer). The dried filtermat was sealed in a sample bag with 4 mL of scintillation fluid and then read on a Perkin Elmer 1450 Microbeta Liquid Scintillator (Perkin Elmer).

The subject of assay [2] is MMP-1. Nature of the assay: Semi-quantitative duplex RT-PCR of MMP-1 after siRNA gene silencing. As to conditions: 24 hours after transfection. The protocol:
as §1
Semi-quantitative duplex RT-PCR was performed by a MJ Research Programmable Thermal Controller (PTC-100, Inc.) and the amplified products were separated on an agarose gel. The duplex PCR utilized 20 by oligonucleotides to amplify regions of ˜350 by from MMP-1. Optimization experiments were conducted to determine a favorable primer concentration for the GAPDH internal control. The following primer oligonucleotides were used: MMP-1 forward (5′-[…]-3′), MMP-1 reverse (5′-[…]-3′), GAPDH forward (5′-[…]-3′), and GAPDH reverse (5′-[…]-3′). The PCR was carried out in a total volume of 25 uL, containing 2.5 uL of 10×PCR Buffer (containing 15 mM MgC12), 0.2 mM dNTPs, and 0.3 ul AmpliTaq Gold DNA Polymerase (Applied Biosystems). […]

Assay [3] has as its system WM852 (wildtype BRAF melanoma). Nature of the assay: 3H-thymidine cell proliferation assay, WM852. The settings on record: 100 nM siRNA. How it is done: as §1, §2
The subject of assay [4] is MMP-1. Nature of the assay: MMP-1 ELISA of cell culture media after siRNA gene silencing. How it is done:
Cell culture media with no serum was added to the cell lines. After 72 hours, the media was collected and the protein concentration was determined using the Bio-Rad Protein Assay reagent (Bio-Rad Laboratories). The amount of human MMP-1 pro and active forms was determined using the RAYBIO Human MMP-1 ELISA kit (RayBiotech, Inc.) following the manufacturer's instructions. MMP-1 activity in the collected media was measured using the SensoLyte Plus™ 520 MMP-1 Assay Kit (AnaSpec) following the manufacturer's protocol including the step to add 4-aminophenylmecuric acetate (APMA) to the samples in order to activate all the pro-MMP-1.
A general note: ELISA stands for enzyme-linked immunosorbent assay.

5′-gagcaagatgtggacttag-3′ [MMP-1 siRNA]: the “cell growth inhibition versus control siRNA” value in assay [1] is recorded as 80%; in assay [3], 17%. The MMP-1 transcript levels entry in assay [2] (WM793, BRAF V600E, 250 nM siRNA) is recorded as “efficiently downregulated”; in assay [2] (WM852, wildtype BRAF, 100 nM siRNA), “efficiently downregulated”. Moreover, the “secreted MMP-1 protein levels from conditioned media” value in assay [4] (WM793, BRAF V600E) is “efficiently downregulated”; in assay [4] (WM852, wildtype BRAF) it was “efficiently downregulated”.
